# Measurements from paper PMC9738531, “Cholinesterases Inhibition, Anticancer and Antioxidant Activity of Novel Benzoxazole and Naphthoxazole Analogs” (Molecules, 2022).
# Experiments:
# [1] = biological target: T1, butyrylcholinesterase (BChE, E.C. 3.1.1.8, from equine serum) (Equus caballus, UniProt P81908); experiment: biochemical; conditions: means ± SEM of three independent experiments
# T1 construct: butyrylcholinesterase (BChE, E.C. 3.1.1.8, from equine serum); purchased Sigma-Aldrich (Steinheim, Germany); host or cells: equine serum (natural source)
# Method: (§1) The compounds were evaluated by an in vitro assay as the AChE and BChE inhibitors. The studies were carried out using the modified Ellman’s method. […] The inhibitory activities against AChE and BChE of the newly-synthesized compounds were determined exactly, according to a previous paper. […] The samples were analysed in triplicate. IC50 values were designated from a dose–response curve obtained by plotting the percentage of inhibition versus the log concentration, using GraphPad Prism 8 software. […] AChE and BChE activity data were compared using the Kruskal–Wallis test at the significance level of 1%.
# [2] = biological target: T2, Acetylcholinesterase (AChE, E.C. 3.1.1.7, from human erythrocytes) (Homo sapiens, UniProt P22303); experiment: biochemical; conditions: for Selectivity for AChE: IC50 (BChE)/IC50 (AChE); for IC50: means ± SEM of three independent experiments
# T2 construct: Acetylcholinesterase (AChE, E.C. 3.1.1.7, from human erythrocytes); purchased Sigma-Aldrich (Steinheim, Germany); host or cells: human erythrocytes (natural source)
# Method: as §1
# [3] = system: A549 (non-small cell lung carcinoma) cells; experiment: SRB antiproliferative assay, A549; format: cell-based, human; conditions: Homo sapiens, A549, 72 h, means ± SD
# Method: (§2) The compounds were also evaluated for their antiproliferative potencies against human cancer cell lines as the potential anticancer agents. […]. The results are presented in Table 3 and expressed as IC50 (μM). In that score, the highest potency was shown by the analogs from the naphtho[1,2-d][1,3]oxazole group 8–10, particularly by derivative 10 with a chlorine atom on the benzenediol moiety.
# (§3) In the antiproliferative assay in vitro, the following human cell lines were applied: T47D (breast cancer), SW707 (rectal adenocarcinoma), A549 (non-small cell lung carcinoma) from the American Type Culture Collection (Rockville, MD, USA) and HCV29T (bladder cancer) from the Fibiger Institute, Copenhagen, Denmark. Cytotoxicity assay was performed after 72 h exposure of the cultured cells at the concentration ranging from 0.1 to 100 μg/mL of the tested agents. The SRB test measuring the cell proliferation inhibition in the in vitro culture was applied. The cellular material fixed with TCA was stained with 0.4% sulforhodamine B (Chemie GmbH, Steinheim, Germany) dissolved in 1% acetic acid (POCh, Gliwice, Poland) for 30 min.
# [4] = system: SW707 (rectal adenocarcinoma) cells; experiment: SRB antiproliferative assay, SW707; format: cell-based, human; conditions: Homo sapiens, SW707, 72 h, means ± SD, read-out: IC50 SW 707
# Method: as §2, §3
# [5] = system: human cancer cell lines (HCV29T, T47D, A549, SW707); experiment: SRB antiproliferative assay, all studied cancer cell lines; format: cell-based; conditions: read-out: IC50 range against all studied cells
# Method: as §2, §3
# [6] = system: T47D (breast cancer) cells; experiment: SRB antiproliferative assay, T47D; format: cell-based, human; conditions: Homo sapiens, T47D, 72 h, means ± SD
# Method: as §2, §3
# [7] = system: HCV29T (bladder cancer) cells; experiment: SRB antiproliferative assay, HCV29T; format: cell-based, human; conditions: Homo sapiens, HCV29T, 72 h, means ± SD, read-out: IC50 HCV 29T
# Method: as §2, §3
# [8] = DPPH free radical scavenging activity; conditions: concentration scavenging 50% of DPPH radicals; means ± SD of three experiments
# Method: To evaluate the antioxidant potential of compounds as radical scavengers versus the stable free radicals, 2,2-diphenylpicrylhydrazyl (DPPH) was applied. Antioxidant properties were expressed as the IC50 value—the concentration of compound required for scavenging 50% of DPPH radicals. […].
# The DPPH free radical scavenging activities of the synthesized compounds were measured by DPPH, according to the method described in the paper. The free radical scavenging activity was measured as a decrease in the absorbance of DPPH, and calculated using the equation:DPPH scavenging effects (%) = […] [(A0 − A1)/A0]∙100](2) where: A0 was the absorbance of the control reaction and A1 absorbance in the presence of the sample of the analysed compounds [62]. The IC50 values were calculated as the concentration of compound required for scavenging 50% of DPPH [45]. Results were presented as the mean ± standard deviation (SD). The antioxidant activity data were compared using the one-way ANOVA test at the significance level 5%.
# [9] = system: normal mammary gland MCF10A cells; experiment: LDH cytotoxicity assay, MCF10A normal cells; format: cell-based, human; conditions: 72 h
# Method: (§4) In view of the observed antiproliferative activity, the influence of the tested compounds on the normal human cells—normal mammary gland epiterial cells of the MCF10A line and the normal keratenocytes HaCaT line—was examined (Figure 5). The cells were treated with compounds 3, 8 and 10 in the concentration range from 0.1 µM to 25 µM for 72 h, after which the cell viability was tested by analysis of the level of released lactate dehydrogenase (LDH method).
# (§5) Normal human epithelial cells from the mammary gland, MCF10A (a generous gift from our colleague Dr. Saraswati Sukumar (JHU), who obtained them recently from ATCC), and normal human keratinocytes HaCaT (also obtained from ATCC), were cultured in DMEM/F12 medium (Gibco), supplemented with 5% horse serum (Gibco), 5% FBS (Sigma-Aldrich Chemie GmbH, Taufkirchen, Germany ), penicillin streptomycin solution (1×) (Gibco) at 37 °C and 5% CO2. The cells were subcultured twice a week.
# (§6) Human epiterial breast cells MCF10A and human keratinocytes HaCaT (1 × 10^4/mL) cells were placed on 96-well plates (Nunc, Roskilde, Denmark). The next day, the cells were exposed to increasing concentrations of compounds 3, 8 and 10 in 0.1, 0.25, 0.5, 1, 2.5, 5, 10 and 25 μM in fresh culture medium. Cytotoxicity was estimated based on the measurements of cytoplasmic lactate dehydrogenase (LDH) activity released from the damaged cells after the 72 h exposure to the compounds. The LDH assay was performed according to the manufacturer’s instructions (Cytotoxicity Detection KitPLUS LDH, Roche, Mannheim, Germany). Absorbance was measured using a microplate at two different wavelengths: “measurement wavelength” (492 nm) and “reference wavelength” (690 nm), using a microplate.
# [10] = system: normal keratinocytes HaCaT cells; experiment: LDH cytotoxicity assay, HaCaT normal cells; format: cell-based, human; conditions: 72 h; for toxicity to keratinocytes (LDH release): HaCaT
# Method: as §4, §5, §6
# [11] = Lipophilicity by RP-18 HPLC chromatography; format: physicochemical; conditions: for -S (slope of log k vs MeOH fraction): MeOH/acetate buffer, pH 7.4; for log kw: pH 7.4, extrapolation to pure water as mobile phase
# From the text: The lipophilicity parameter was estimated for the tested compounds as it is an important feature that influences the pharmacokinetic properties of bioactive compounds [46, 47]. Lipophilicity also determines some biological activities, such as the antiproliferative or fungistatic activity. For lipophilicity determination, reversed-phase column chromatography was used, with the octadecyl C-18 stationary phase and MeOH as the organic modifier in the isocratic conditions.
# HPLC measurements were performed using a liquid chromatograph (Knauer, Berlin, Germany) with a dual pump and a UV-visible detector. The measurements were made at 254 or 320 nm at room temperature. A Eurosil Bioselect C18 (5 μm, 300 × 4.6 mm) column was applied as the stationary phase. The mobile phase consisted of different volume mixtures of 20 mM acetate buffer as the aqueous phase, and MeOH as the organic modifier (pH 7.4). The different concentrations of MeOH from 0.5 to 0.90 (v/v) range was used, depending on the structure of the compound at 0.05 intervals. The flow rate was 1 mL/min. Retention time of an unretained solute (t0) was determined by the injection of a small amount of acetone dissolved in water.
# Regular changes in the retention coefficients of compounds in a function of the organic modifier MeOH content in the mobile phase are described by the Soczewiński–Wachtmeister equation [56]:log k = log kw + S φ(1)
# φ—the volume fraction of organic modifier (MeOH) in the mobile phase; log kw—the intercept; S—slope of the regression curve. Log kw refers to the retention parameter of a compound with pure water as the mobile phase.
# AChE = biological target: T3, AChE (Homo sapiens, UniProt P22303); experiment: Kinetic study of AChE inhibition (Lineweaver-Burk); format: biochemical; conditions: for type of AChE inhibition: Lineweaver-Burk plot
# T3 construct: Acetylcholinesterase (AChE, E.C. 3.1.1.7, from human erythrocytes); purchased Sigma-Aldrich (Steinheim, Germany); host or cells: human erythrocytes (natural source)
# Method: Ellman’s method was used to prepare a kinetic characterization of AChE inhibition for compound 8. […]. The tested medium contained DTNB solution (0.4 mg/mL), AChE solution (2 U/mL), solution of the examined compound 8, and different concentrations of the ATCh iodide substrate solution (S). Absorbance was detected at 412 nm at room temperature after 10 min. The obtained data were calculated and presented on the Lineweaver–Burk plot. The determined the Michaelis–Menten constant (KM) and the maximum velocity of the enzyme (Vmax) values were used to define the type of enzyme inhibition.
# T2 sequence (P22303 other isoform, or with tags, fused parts or gaps): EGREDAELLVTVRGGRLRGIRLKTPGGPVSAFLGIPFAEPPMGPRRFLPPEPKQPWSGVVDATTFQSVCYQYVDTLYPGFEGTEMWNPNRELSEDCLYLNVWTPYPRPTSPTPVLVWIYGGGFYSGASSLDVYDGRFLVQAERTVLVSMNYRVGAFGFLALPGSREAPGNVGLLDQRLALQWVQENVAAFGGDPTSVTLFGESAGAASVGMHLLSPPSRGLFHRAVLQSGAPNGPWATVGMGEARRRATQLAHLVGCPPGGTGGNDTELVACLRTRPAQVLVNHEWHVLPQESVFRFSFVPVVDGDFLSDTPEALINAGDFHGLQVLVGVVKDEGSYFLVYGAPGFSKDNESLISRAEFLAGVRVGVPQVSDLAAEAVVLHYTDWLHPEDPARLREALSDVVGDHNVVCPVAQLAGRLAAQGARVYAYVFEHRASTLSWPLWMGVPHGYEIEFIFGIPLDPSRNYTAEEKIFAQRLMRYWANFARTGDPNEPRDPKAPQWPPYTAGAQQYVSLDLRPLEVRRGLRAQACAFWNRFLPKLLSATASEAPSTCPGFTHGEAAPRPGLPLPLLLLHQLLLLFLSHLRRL
# T3 sequence (P22303 other isoform, or with tags, fused parts or gaps): as above
# T1 sequence (P81908 whole entry): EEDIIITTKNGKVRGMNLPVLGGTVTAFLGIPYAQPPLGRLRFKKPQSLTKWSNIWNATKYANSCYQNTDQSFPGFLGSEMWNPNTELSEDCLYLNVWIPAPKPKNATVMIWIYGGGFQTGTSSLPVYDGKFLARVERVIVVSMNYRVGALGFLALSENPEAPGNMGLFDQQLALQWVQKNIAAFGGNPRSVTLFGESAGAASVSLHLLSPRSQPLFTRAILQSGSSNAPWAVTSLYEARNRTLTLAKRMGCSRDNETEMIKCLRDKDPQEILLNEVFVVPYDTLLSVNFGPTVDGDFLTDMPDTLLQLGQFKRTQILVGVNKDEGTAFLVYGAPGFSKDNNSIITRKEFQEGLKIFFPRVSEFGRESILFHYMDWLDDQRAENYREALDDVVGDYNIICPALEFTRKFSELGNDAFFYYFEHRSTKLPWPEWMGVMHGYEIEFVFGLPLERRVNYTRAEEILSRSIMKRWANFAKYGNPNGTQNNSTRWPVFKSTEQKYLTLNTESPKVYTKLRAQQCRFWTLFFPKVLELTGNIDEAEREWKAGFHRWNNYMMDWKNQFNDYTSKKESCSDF
SMILES,IC50 [1] [nM],Selectivity for AChE [2],IC50 [2] [nM],IC50 [3] [nM],IC50 [4] [nM],IC50 [6] [nM],IC50 [7] [nM],IC50 [8] [nM],-S (slope of log k vs MeOH fraction) [11],log kw [11],further results
"Oc1cc(O)c(-c2nc3c(ccc4ccccc43)o2)cc1Cl [Compound 10, 4-Chloro-6-(naphtho[1,2-d][1,3]oxazol-2-yl)benzene-1,3-diol]",887 ± 41,1.278,694 ± 11,2710 ± 120,2890 ± 340,2180 ± 1050,2240 ± 830,633 ± 146,4.996,4.518,"IC50 [5]: 2180 to 2890 nM; change in level of lactate dehydrogenase ([9]; 0.1–5 µM, vs control): statistically significant reduction; toxicity to normal breast cells (LDH release) ([9]; tested concentration to 25 µM): not toxic; toxicity to keratinocytes (LDH release) ([10]; tested concentration to 25 µM): not toxic"
"COC(=O)c1ccc2nc(-c3ccc(O)cc3O)oc2c1 [Compound 3, Methyl 2-(2,4-dihydroxyphenyl)-1,3-benzoxazole-6-carboxylate]",1130 ± 16,10.017,113 ± 11,4280 ± 550,5470 ± 2160,3370 ± 1520,6430 ± 1120,286 ± 122,5.325,2.92,"toxicity to normal breast cells (LDH release) ([9]; 0.1–10 µM): not toxic; change in lactate dehydrogenase levels ([9]; 5 and 10 µM, vs control): statistically significant reduction; toxicity to keratinocytes (LDH release) ([10]; 0.1–10 µM): not toxic; change in lactate dehydrogenase levels ([10]; HaCaT, 2.5, 5 and 10 µM, vs control): statistically significant reduction"
"Oc1ccc(-c2nc3c(ccc4ccccc43)o2)c(O)c1 [Compound 8, 4-(Naphtho[1,2-d][1,3]oxazol-2-yl)benzene-1,3-diol]",981 ± 15,,58 ± 10,4170 ± 190,3350 ± 160,2860 ± 180,2500 ± 1880,452 ± 31,4.263,3.936,"type of AChE inhibition (AChE): mixed-type inhibitor; type of AChE inhibition (AChE; listed as 4-(Naphtho[1,2-d][1,3]oxazol-2-yl)benzene-1,3-diol): mixed-type inhibition; Vmax (AChE; compound 8 concentration 25 nM): 0.031 A/min; Vmax (AChE; compound 8 concentration 50 nM): 0.023 A/min; Vmax (AChE; compound 8 concentration 75 nM): 0.021 A/min; influence on mammary cells viability (LDH) ([9]; 0.1–5 µM): no influence; toxicity to keratinocytes (LDH release) ([10]; whole tested range 0.1–25 µM): toxic"
